Laboratory results from patent US12371454B2, “Cyclic peptide compound having Kras inhibitory action” (priority 2019, dated 2025).
Starred links: 1 amine or outer side, 2 acyl side, 3 side chain; linkers in the order of their positions; H or OH if unused. Positions of bridges follow the written chain, without caps; N, C: chain ends. Non-standard residues stand in square brackets, D forms with d. Residues, ends and D or L forms follow the SMILES beside them. *: point of attachment. hPhe(3,5-F2-4-CF3) = N[C@@H](CCc1cc(F)c(C(F)(F)F)c(F)c1)C(=O)O; hPhe(3-Cl-4-CF3) = N[C@@H](CCc1ccc(C(F)(F)F)c(Cl)c1)C(=O)O; hPhe(4-CF3) = N[C@@H](CCc1ccc(C(F)(F)F)cc1)C(=O)O; NMePhe(3-Cl) = CN[C@@H](Cc1cccc(Cl)c1)C(=O)O; NMePhe(4-Cl) = CN[C@@H](Cc1ccc(Cl)cc1)C(=O)O; X4 = O=C([C@H](Cc1cc(F)cc(Cl)c1)N[*:1])[*:2]; NMePhe(4-Me) = CN[C@@H](Cc1ccc(C)cc1)C(=O)O; NMePhe(3-F) = CN[C@@H](Cc1cccc(F)c1)C(=O)O; NMePhe(4-F) = CN[C@@H](Cc1ccc(F)cc1)C(=O)O; NMedβ3hAla = C[C@H](CC(=O)[*:2])N(C)[*:1]; NMeGly(cPent) = CN[C@H](C(=O)O)C1CCCC1; Phe(3-I) = N[C@@H](Cc1cccc(I)c1)C(=O)O; Pro(4,4-F2) = O=C(O)[C@@H]1CC(F)(F)CN1; NMeCha = CN[C@@H](CC1CCCCC1)C(=O)O; NMeGly(cPr) = CN[C@H](C(=O)O)C1CC1; Azetidine(3,3-F2) = FC1(F)CN(*)C1; Nva(3-Et) = CCC(CC)[C@H](N)C(=O)O; NMeChg = CN[C@H](C(=O)O)C1CCCCC1; NMeF = CN[C@@H](Cc1ccccc1)C(=O)O; NMeI = CC[C@H](C)[C@H](NC)C(=O)O; NMeD = CN[C@@H](CC(=O)O)C(=O)O; NMeL = CN[C@@H](CC(C)C)C(=O)O; NEtAla = CCN[C@@H](C)C(=O)O; NMeNva = CCC[C@H](NC)C(=O)O; NMeV = CN[C@H](C(=O)O)C(C)C; d(β3hA) = C[C@@H](N)CC(=O)O; NMeA = CN[C@@H](C)C(=O)O; NMeAib = CNC(C)(C)C(=O)O; Nle = CCCC[C@H](N)C(=O)O; Piperidide = C1CCN(*)CC1; Pyrrolidide = C1CCN(*)C1; dNMeA = CN[C@H](C)C(=O)O; Ac5c = NC1(C(=O)O)CCCC1; Aze = O=C(O)[C@@H]1CCN1; NcPrGly = O=C(O)CNC1CC1; Sar = CNCC(=O)O

Each molecule was assayed against T1, Kras and SOS1 (biotin-tagged human Kras loaded with GDP, His-tagged human SOS1) (Homo sapiens, UniProt P01116, G12D) (assay: Protein-protein interaction inhibition between Kras and SOS1 (KrasGl2D-SOS PPI) using AlphaScreen). Conditions: AlphaScreen; biotin-tagged human Kras loaded with GDP, His-tagged human SOS1; read-out: KRAS G12D-SOS PPI IC50.
T1 construct: made in house; host or cells: E. coli (stated for Kras only)
Format: binding
In short: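 Binding between SOS1 and Kras is detected as bead-proximity luminescence: illuminate Ni-conjugated donors (680 nm), collect 520-620 nm emission from streptavidin-conjugated acceptors; Kras carries biotin and GDP loaded after purification, SOS1 carries a His tag.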

T1 sequence (P01116 1-188 isoform P01116-2 G12D): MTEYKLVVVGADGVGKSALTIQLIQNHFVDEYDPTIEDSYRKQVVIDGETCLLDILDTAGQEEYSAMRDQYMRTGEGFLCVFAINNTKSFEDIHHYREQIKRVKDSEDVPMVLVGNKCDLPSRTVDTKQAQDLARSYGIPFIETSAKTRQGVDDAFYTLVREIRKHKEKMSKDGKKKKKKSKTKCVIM

First: CC[C@H](C)[C@@H]1NC(=O)[C@H](C)N(C)C(=O)C[C@@H](C)NC(=O)[C@H](C2CCCC2)N(C)C(=O)C2(CCCC2)NC(=O)[C@@H]2CCCN2C(=O)[C@H](CCc2ccc(C(F)(F)F)c(Cl)c2)NC(=O)CN(C)C(=O)[C@H](Cc2cccc(Cl)c2)N(C)C(=O)[C@@H]2CCCN2C(=O)CN(C)C1=O [Compound 186] (cyclo([Ac5c][NMeGly(cPent)][d(β3hA)][NMeA]I[Sar]P[NMePhe(3-Cl)][Sar][hPhe(3-Cl-4-CF3)]P))
Second: CC[C@H](C)[C@@H]1NC(=O)[C@H](C)N(C)C(=O)C[C@@H](C)NC(=O)[C@H](C2CCCC2)N(C)C(=O)C2(CCCC2)NC(=O)[C@@H]2CCCN2C(=O)[C@H](CCc2ccc(C(F)(F)F)c(Cl)c2)NC(=O)CN(C)C(=O)[C@H](Cc2cccc(F)c2)N(C)C(=O)[C@@H]2CCCN2C(=O)CN(C)C1=O [Compound 194] (cyclo([Ac5c][NMeGly(cPent)][d(β3hA)][NMeA]I[Sar]P[NMePhe(3-F)][Sar][hPhe(3-Cl-4-CF3)]P))
The IC50 of the first is 1.8-fold higher: 48 nM for the first, 27 nM for the second.

First: CCC[C@H]1C(=O)N(C)CC(=O)N[C@@H](CCc2ccc(C(F)(F)F)c(Cl)c2)C(=O)N2CCC[C@H]2C(=O)NC2(CCCC2)C(=O)N(C)[C@@H](C2CCCCC2)C(=O)N(C)[C@H](C(=O)N2CCCCC2)CC(=O)N(C)[C@@H](CC(C)C)C(=O)N[C@@H]([C@@H](C)CC)C(=O)N(C)CC(=O)N(C)CC(=O)N1C [Compound 187] ([NMeL]I[Sar][Sar][NMeNva][Sar][hPhe(3-Cl-4-CF3)]P[Ac5c][NMeChg][NMeD]-Piperidide; lactam N-11)
Second: CC[C@H](C)[C@@H]1NC(=O)[C@H](CC(C)C)N(C)C(=O)C[C@@H](C(=O)N2CCCCC2)N(C)C(=O)[C@H](C2CC2)N(C)C(=O)C2(CCCC2)NC(=O)[C@@H]2CCCN2C(=O)[C@H](CCc2ccc(C(F)(F)F)c(Cl)c2)NC(=O)CN(C)C(=O)[C@H](CC2CCCCC2)N(C)C(=O)CN(C)C(=O)CN(C)C1=O [Compound 197] ([NMeL]I[Sar][Sar][NMeCha][Sar][hPhe(3-Cl-4-CF3)]P[Ac5c][NMeGly(cPr)][NMeD]-Piperidide; lactam N-11)
The IC50 of the first is 2.1-fold lower: 3.2 nM for the first, 6.8 nM for the second. The first is the more potent here.

Going from `CC[C@H](C)[C@@H]1NC(=O)[C@H](CC(C)C)N(C)C(=O)C[C@@H](C(=O)N2CCCCC2)N(C)C(=O)[C@H](CC(C)C)NC(=O)C(C)(C)N(C)C(=O)[C@H](Cc2ccc(OC)cc2)NC(=O)[C@H](Cc2cccc(I)c2)NC(=O)CN(C)C(=O)[C@H](Cc2ccc(C)cc2)N(C)C(=O)[C@@H]2CCN2C(=O)CN(C)C1=O` [Compound 188] ([NMeL]I[Sar][Aze][NMePhe(4-Me)][Sar][Phe(3-I)]Y(Me)[NMeAib]L[NMeD]-Piperidide; lactam N-11) to `CCCC[C@@H]1NC(=O)[C@H](Cc2cc(F)cc(Cl)c2)NC(=O)CN(C)C(=O)[C@H](Cc2ccc(Cl)cc2)N(C)C(=O)CN(C)C(=O)CN(C)C(=O)[C@H]([C@@H](C)CC)NC(=O)[C@H](CC(C)C)N(C)C(=O)C[C@@H](C(=O)N2CCCCC2)N(C)C(=O)[C@H](CC(C)C)NC(=O)C(C)(C)N(C)C1=O` [Compound 202] ([NMeL]I[Sar][Sar][NMePhe(4-Cl)][Sar][X4][Nle][NMeAib]L[NMeD]-Piperidide; lactam N-11), the IC50 rises from 6.1 nM to 39 nM (6.4-fold). The first is the more potent here.

`CC[C@H](C)[C@@H]1NC(=O)[C@H](C)N(C)C(=O)C[C@@H](C(=O)N2CCCCC2)N(C)C(=O)[C@H](C(C)C)N(C)C(=O)[C@H](CC(C)C)NC(=O)[C@H](CC(=O)N2CC(F)(F)C2)N(C)C(=O)[C@H](CCc2ccc(C(F)(F)F)c(Cl)c2)NC(=O)CN(C)C(=O)[C@H](CC2CCCCC2)N(C)C(=O)CN(C)C(=O)CN(C)C1=O` [Compound 190] ([NMeA]I[Sar][Sar][NMeCha][Sar][hPhe(3-Cl-4-CF3)][NMeD](Azetidine(3,3-F2))L[NMeV][NMeD]-Piperidide; lactam N-11) and `CC[C@H](C)[C@@H]1NC(=O)[C@H](CC(C)C)N(C)C(=O)C[C@@H](C)NC(=O)[C@H](C(C)C)N(C)C(=O)C2(CCCC2)NC(=O)[C@@H]2CCCN2C(=O)[C@H](CCc2ccc(C(F)(F)F)c(Cl)c2)NC(=O)CN(C2CC2)C(=O)[C@H](CC2CCCCC2)N(C)C(=O)CN(C)C(=O)CN(C)C1=O` [Compound 204] (cyclo([Ac5c][NMeV][d(β3hA)][NMeL]I[Sar][Sar][NMeCha][NcPrGly][hPhe(3-Cl-4-CF3)]P)) are within 1.5-fold of each other in IC50: 150 nM for the first, 180 nM for the second.

Compared with `CC[C@H](C)[C@@H]1NC(=O)[C@H](CC(C)C)N(C)C(=O)C[C@@H](C(=O)N(C)C)N(C)C(=O)[C@H](C2CCCC2)N(C)C(=O)C2(CCCC2)NC(=O)[C@@H](C)NC(=O)[C@H](CCc2ccc(C(F)(F)F)c(Cl)c2)NC(=O)CN(C)C(=O)[C@H](CC2CCCCC2)N(C)C(=O)[C@@H]2CCN2C(=O)[C@H](C)N(C)C1=O` [Compound 191] ([NMeL]I[NMeA][Aze][NMeCha][Sar][hPhe(3-Cl-4-CF3)][dA][Ac5c][NMeGly(cPent)][NMeD]-NMe2; lactam N-11), `CC[C@H](C)[C@@H]1NC(=O)[C@H](C)N(CC)C(=O)C[C@@H](C)NC(=O)[C@H](C(C)C)N(C)C(=O)C2(CCCC2)NC(=O)[C@@H]2CCCN2C(=O)[C@H](CCc2ccc(C(F)(F)F)c(Cl)c2)NC(=O)CN(C)C(=O)[C@H](CC2CCCCC2)N(C)C(=O)CN(C)C(=O)CN(C)C1=O` [Compound 196] (cyclo([Ac5c][NMeV][d(β3hA)][NEtAla]I[Sar][Sar][NMeCha][Sar][hPhe(3-Cl-4-CF3)]P)) is 3.8-fold higher in IC50: 3.4 nM for the first, 13 nM for the second. The first is the more potent here.

First: CCC(CC)[C@@H]1NC(=O)[C@H](CC(C)C)N(C)C(=O)C[C@@H](C(=O)N(C)C)N(C)C(=O)[C@H]([C@@H](C)CC)N(C)C(=O)CNC(=O)[C@@H]2CCCN2C(=O)[C@H](CCc2ccc(C(F)(F)F)c(Cl)c2)NC(=O)CN(C)C(=O)[C@H](Cc2ccc(C)cc2)N(C)C(=O)[C@@H]2CCN2C(=O)[C@H](C)N(C)C1=O [Compound 193] ([NMeL][Nva(3-Et)][NMeA][Aze][NMePhe(4-Me)][Sar][hPhe(3-Cl-4-CF3)]PG[NMeI][NMeD]-NMe2; lactam N-11)
Second: CC[C@H](C)[C@@H]1NC(=O)[C@H](C)N(C)C(=O)C[C@@H](C(=O)N2CCCC2)NC(=O)[C@H](CC(C)C)N(C)C(=O)[C@H](Cc2ccccc2)N(C)C(=O)[C@H](CC(C)C)N(C)C(=O)[C@H](CCc2ccc(C(F)(F)F)cc2)NC(=O)CN(C)C(=O)[C@H](Cc2ccc(Cl)cc2)N(C)C(=O)CN(C)C(=O)CN(C)C1=O [Compound 199] ([NMeA]I[Sar][Sar][NMePhe(4-Cl)][Sar][hPhe(4-CF3)][NMeL][NMeF][NMeL]D-Pyrrolidide; lactam N-11)
The IC50 of the first is 12-fold higher: 420 nM for the first, 36 nM for the second.

Going from `CC[C@H](C)[C@@H]1NC(=O)[C@H](CC(C)C)N(C)C(=O)C[C@@H](C)N(C)C(=O)[C@H](C2CCCC2)N(C)C(=O)C2(CCCC2)NC(=O)[C@@H]2CC(F)(F)CN2C(=O)[C@H](CCc2cc(F)c(C(F)(F)F)c(F)c2)NC(=O)CN(C)C(=O)[C@H](CC2CCCCC2)N(C)C(=O)CN(C)C(=O)CN(C)C1=O` [Compound 198] (cyclo([Ac5c][NMeGly(cPent)][NMedβ3hAla][NMeL]I[Sar][Sar][NMeCha][Sar][hPhe(3,5-F2-4-CF3)][Pro(4,4-F2)])) to `CC[C@H](C)[C@@H]1NC(=O)[C@H](C)N(C)C(=O)C[C@@H](C)NC(=O)[C@H](C2CCCC2)N(C)C(=O)C2(CCCC2)NC(=O)[C@@H]2CCCN2C(=O)[C@H](CCc2ccc(C(F)(F)F)c(Cl)c2)NC(=O)[C@@H](C)N(C)C(=O)[C@H](Cc2ccc(F)cc2)N(C)C(=O)CN(C)C(=O)CN(C)C1=O` [Compound 206] (cyclo([Ac5c][NMeGly(cPent)][d(β3hA)][NMeA]I[Sar][Sar][NMePhe(4-F)][dNMeA][hPhe(3-Cl-4-CF3)]P)), the IC50 rises from 8.5 nM to 110 nM (13-fold).
